Results as given in patent US7691985B2, “Skeletal-targeted radiation to treat bone-associated pathologies” (priority 1999, dated 2010).

System: Multiple myeloma patients
Assay: ^166Ho-DOTMP plus melphalan with or without TBI and stem cell transplant, Phase I/II (Examples 7, 11, 13)
Type: in vivo, human
Description: Multiple myeloma patients (≦65 yrs. of age) that have responded to initial chemotherapy or have primary refractory disease or chemotherapy responsive relapse, but who are not in refractory relapse are treated. Patients are well hydrated with fluids during the day prior to the diagnostic dose. An initial diagnostic dose of 30 mCi of ^166Ho-DOTMP is administered to confirm the selective localization to the skeleton, establish the in-vivo pharmacokinetics and provide radiation dosimetry estimates for the red marrow. Assuming >15% of the ^166Ho-DOTMP accumulates in bone following the injection, the amount of ^166Ho-DOTMP required for therapy is calculated based on delivering a specified radiation absorbed dose to the marrow. Patients receive the therapeutic dose by intravenous injection over 5-10 minutes, given over 1-3 days >48 hrs after the dosometry (test) dose.
The time line for conducting the investigation is as follows: Test dose ^166Ho-DOTMP (30 mCi); ^166Ho scan image (0, 4-6, 20-24 hr.); Blood samples for dosimetry (10, 30 min, 1, 2, 6, 20-24 hr.); Urine samples (0-6, 6-12, 12-24, 24-48 hr.); and External whole body probe (0, 2, 6, 24 and 48 hr.).
Melphalan is administered 48 hr prior to the predicted PBSC infusion based upon dosimetry assessment from the test dose. PBSC infusion is administered when bone marrow dose from ^166Ho is ≦1 cGy/hr. Patients were treated at 20, 30, 40 and prospectively 50 Gy, and with 140 mg/m^2 and 200 mg/m^2 melphalan.
The MTD was defined as the level that is associated with a true toxicity rate of 20%, where toxicity for these purposes was taken to be grade 3 or greater extramedullary drug related toxicity.
All toxicities encountered during the study will be evaluated according to Bearman criteria (Bearman et al., J Clin Oncol, 6,1562, (1988)). Graft failure is considered a grade 3 toxicity. Graft failure is defined as failure to recover granulocytes to 0.5×10^9/l or platelets 20×10^9/l within 28 days of transplant or a fall to less than these levels for 3 or more consecutive days after day 28 without other apparent cause. Hematopoietic recovery (engraftment) is defined as having a sustained granulocyte count of 0.5×10^9/l for two consecutive counts post transplant and a platelet count 20×10^9/l for seven consecutive counts post transplant, without transfusion support. The first of two counts for the granulocyte count and the first of seven counts for the platelet count are considered the day of engraftment.
Patients undergo blood stem cell infusion at the time when ongoing radiation to the marrow falls to <1 rad/hr, and at least 24 hours after melphalan infusion. The total volume of stored cells is infused into a free flowing IV line primed with normal saline. Patients are premedicated with acetaminophen 650 mg PO and diphenhydramine 50 mg PO or IV. All patients receive conventional supportive care for autologous/syngeneic blood and marrow transplantation, (such as allopurinol, menstrual suppression, prophylactic antibiotics, empiric antibiotics, IV Ig, transfusions of blood products, hyperalimentation, and the like).
Patients, afflicted with multiple myeloma, were treated according to the method of the present invention. The dosage range of radiation from the complex was 460 mCi to 4.5 Ci.
Fifty-three patients received intravenous hydration only, while 30 patients received both IV hydration and continuous bladder irrigation.
In order to achieve a complete response using protocol criteria, a patient must have a complete absence of any myeloma protein in the blood/urine and marrow post treatment. The patient must have normal bone marrow with complete resolution of plasmocytomas and no increase in bone lesions. To meet international standards, this must be maintained for 6 weeks. While response rates to a conventional high dose therapy vary widely, in general for previously treated patients, there is a range of 5-25% CR rate. […]

[1] = 140 mg/m^2 melphalan w/ TBI, 20 Gy to marrow
[2] = 140 mg/m^2 melphalan w/ TBI, 30 Gy to marrow
[3] = 140 mg/m^2 melphalan w/ TBI, 40 Gy to marrow
[4] = 140 mg/m^2 melphalan w/o TBI, 20 Gy to marrow
[5] = 140 mg/m^2 melphalan w/o TBI, 30 Gy to marrow
[6] = 140 mg/m^2 melphalan w/o TBI, 40 Gy to marrow
[7] = 200 mg/m^2 melphalan w/o TBI, 20 Gy to marrow
[8] = 200 mg/m^2 melphalan w/o TBI, 30 Gy to marrow
[9] = 200 mg/m^2 melphalan w/o TBI, 40 Gy to marrow
[10] = 40 patients who received 200 mg/m^2 melphalan and were not in CR at treatment
[11] = nine patients, 750+/−10% mCi/m^2
[12] = nine patients, dose 750 mCi/m^2 (±10%)
[13] = patients who received more than 1500 mCi
[14] = patients who received ≦1500 mCi
[15] = ≦30 Gy marrow dose, 35 evaluable patients

## O=P([O-])(O)CN1CCN(CP(=O)(O)O)CCN(CP(=O)([O-])O)CCN(CP(=O)(O)O)CC1.[166Ho] [^166Ho-DOTMP]
[1]
  Days to ANC > 500: 9 days
  Days to Platelets > 20,000: 12 days
  Number of Patients w/ Grade 3 Toxicity: 0/8
[2]
  Days to ANC > 500: 11 days
  Days to Platelets > 20,000: 12 days
  Number of Patients w/ Grade 3 Toxicity: 1/8
[3]
  Days to ANC > 500: 9 days
  Days to Platelets > 20,000: 13 days
  Number of Patients w/ Grade 3 Toxicity: 0/20
140 mg/m^2 melphalan w/ TBI, all marrow doses
  Complete Response: 7/17
[4]
  Days to ANC > 500: 10 days
  Days to Platelets > 20,000: 10 days
  Number of Patients w/ Grade 3 Toxicity: 0/5
[5]
  Days to ANC > 500: 16 days
  Days to Platelets > 20,000: 10 days
  Number of Patients w/ Grade 3 Toxicity: 0/4
[6]
  Days to ANC > 500: 12 days
  Days to Platelets > 20,000: 10 days
  Number of Patients w/ Grade 3 Toxicity: 0/7
140 mg/m^2 melphalan w/o TBI, all marrow doses
  Complete Response: 3/14
200 mg/m^2 melphalan patients, mean follow-up time 39.4 months
  patients alive: Sixty-one
[7]
  Days to ANC > 500: 10 days
  Days to Platelets > 20,000: 11 days
  Number of Patients w/ Grade 3 Toxicity: 0/4
[8]
  Days to ANC > 500: 12 days
  Days to Platelets > 20,000: 10 days
  Number of Patients w/ Grade 3 Toxicity: 0/7
[9]
  Days to ANC > 500: 10.5 days
  Days to Platelets > 20,000: 10 days
  Number of Patients w/ Grade 3 Toxicity: 0/14
200 mg/m^2 melphalan w/o TBI, all marrow doses
  Complete Response: 8/9
[10]
  complete remission: 39%
  partial response: 32%
83 patients
  patients who developed grade 3-4 renal toxicity: Twenty-five
83 patients, 5-12 months post-therapy
  symptoms of long-term kidney dysfunction: 40%
Phase I/II studies, to date
  patient deaths: 21
Across all ^166Ho-DOTMP/melphalan±TBI doses, 77 patients with response data
  complete response rate: 35%
Across all doses, 77 patients with response data
  patients with a partial response: Twenty-four
All patients
  Grade 1-3 hemorrhagic cystitis (HC) observed: 24 patients
All treated at 40 Gy or higher to the marrow
  patients who developed TTP/HUS: Seven
[11]
  cases of Grade 3-4 renal toxicities: no cases of Grade 3-4 renal toxicities
  cases of TTP/HUS: no cases of TTP/HUS
[12]
  2-year survival: 100%
  CR rate: 44.4%
Of the 24 patients with HC
  Grade 1-3 hemorrhagic cystitis (HC), patients treated without continuous bladder irrigation (CBI): 22 patients
Patients administered less than 1500 mCi
  cases of TTP and Grade 3 or high renal toxicity: no reported cases
Patients treated at doses, 675 mCi/m^2
  cases of TTP/HUS: no cases of TTP/HUS occurred
Patients who received less than 1500 mCi
  incidence of sustained renal dysfunction: 23%
[13]
  CR rate: 36%
  Two-year survival: 67%
[14]
  CR rate: 32%
  Two-year survival: 77%
Serum creatinine >2 mg/dL twice or >3 mg/dL once
  patients with renal dysfunction not related to TTP/HUS or progressive myeloma: nine
With melphalan at 200 mg/m^2
  tolerability: well tolerated
≦30 Gy marrow dose
  survival of 12 months: 100%
[15]
  Complete Response: 30%
  partial response: 32%
  progressive disease: None
  stable disease: 32%
